Measured values taken from patent publication US11590107B2, “Methods for treating neurological disorders with α1A-AR partial agonists” (CURASEN THERAPEUTICS, INC., priority 2019, dated 2023).
Read-outs that look alike come from different tables or passages of the source.

Experiments:
α1A-AR receptor [1] = target: T1, α1A-AR receptor (Homo sapiens, UniProt P35348); conditions: InsPs accumulation assay; Blue et al., Table 1; cited from earlier work
T1 sequence (P35348 1-466): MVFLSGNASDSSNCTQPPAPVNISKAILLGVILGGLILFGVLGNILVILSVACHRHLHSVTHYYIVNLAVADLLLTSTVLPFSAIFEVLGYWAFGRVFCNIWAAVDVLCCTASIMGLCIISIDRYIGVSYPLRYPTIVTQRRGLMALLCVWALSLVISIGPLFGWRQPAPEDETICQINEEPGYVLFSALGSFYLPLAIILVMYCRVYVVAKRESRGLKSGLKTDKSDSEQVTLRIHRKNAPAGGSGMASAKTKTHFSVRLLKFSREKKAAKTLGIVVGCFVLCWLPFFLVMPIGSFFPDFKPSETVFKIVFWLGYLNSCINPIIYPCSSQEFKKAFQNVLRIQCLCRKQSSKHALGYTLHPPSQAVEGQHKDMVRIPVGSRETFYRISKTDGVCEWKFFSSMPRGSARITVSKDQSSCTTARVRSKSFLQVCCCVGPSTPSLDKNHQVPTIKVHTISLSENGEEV

[2] = tested on: patients with central autonomic failure; conditions: Ramirez et al. 2014, Shibao et al. 2007; cited from earlier work
α1A-AR receptor [3] = target: T1, α1A-AR receptor; conditions: FLIPR assay; Blue et al., Table 1; cited from earlier work
[4] = tested on: patients with symptomatic neurogenic orthostatic hypotension; assay: Treatment of patients having nOH (Example 1); type: in vivo, human; conditions: 5 mg oral tablets twice daily, follow-up after one week
Procedure: Patients between the age of 40 and 80 years old that have been diagnosed with symptomatic orthostatic hypotension due to pure autonomic failure, multiple system atrophy or Parkinson's disease (i.e., PD plus symptoms) present for treatment. At the time of presentation, autonomic function testing is conducted to confirm the diagnosis of autonomic dysfunction including sinus arrhythmia and the Valsalva maneuver.
The patients are given 5 mg dabuzalgron oral tablets and are instructed to take one tablet shortly after waking up in the morning and a second tablet 4-6 hours later each day.
Some patients return for a follow-up visit after one week of treatment. […] In the follow-up visit supine systolic blood pressure (SSBP) may be determined.

Cc1c(OCC2=NCCN2)ccc(Cl)c1NS(C)(=O)=O [RO 115-1240 (dabuzalgron) free base, N-[6-chloro-3-(4,5-dihydro-1H-imidazol-2-ylmethoxy)-2-methylphenyl] methanesulfonamide]
intrinsic activity as compared to noradrenaline (α1A-AR receptor [1]): 0.31

CNCC[C@@H](Oc1ccccc1C)c1ccccc1 [Atomoxetine]
effect on blood pressure [2]: increase blood pressure

Cc1c(OCC2=NCCN2)ccc(Cl)c1NS(C)(=O)=O.Cl [RO 115-1240 (dabuzalgron) HCl salt, N-[6-chloro-3-(4,5-dihydro-1H-imidazol-2-ylmethoxy)-2-methylphenyl] methanesulfonamide hydrochloride]
intrinsic activity as compared to noradrenaline (α1A-AR receptor [3]): 0.51
intrinsic activity as compared to noradrenaline (α1A-AR receptor [1]): 0.27

Cc1c(OCC2=NCCN2)ccc(Cl)c1NS(C)(=O)=O [dabulzagron, N-[6-chloro-3-(4,5-dihydro-1H-imidazol-2-ylmethoxy)-2-methylphenyl] methanesulfonamide]
rise in SSBP compared with patients taking midodrine or droxidopa for nOH [4]: less that that observed in patients taking midodrine or droxidopa
rise in supine systolic blood pressure (SSBP) [4]: not experience a substantial rise in SSBP
symptoms of nOH as compared to the first visit before treatment [4]: improve
